# Target: T1, HDAC6 enzyme (Homo sapiens, UniProt Q9UBN7)
# T1 construct: transducing full length HDAC6 gene into Sf-9 insect cells; GST; purchased SignalChem; host or cells: Sf-9 insect cells
# T1 sequence (Q9UBN7 1-1215): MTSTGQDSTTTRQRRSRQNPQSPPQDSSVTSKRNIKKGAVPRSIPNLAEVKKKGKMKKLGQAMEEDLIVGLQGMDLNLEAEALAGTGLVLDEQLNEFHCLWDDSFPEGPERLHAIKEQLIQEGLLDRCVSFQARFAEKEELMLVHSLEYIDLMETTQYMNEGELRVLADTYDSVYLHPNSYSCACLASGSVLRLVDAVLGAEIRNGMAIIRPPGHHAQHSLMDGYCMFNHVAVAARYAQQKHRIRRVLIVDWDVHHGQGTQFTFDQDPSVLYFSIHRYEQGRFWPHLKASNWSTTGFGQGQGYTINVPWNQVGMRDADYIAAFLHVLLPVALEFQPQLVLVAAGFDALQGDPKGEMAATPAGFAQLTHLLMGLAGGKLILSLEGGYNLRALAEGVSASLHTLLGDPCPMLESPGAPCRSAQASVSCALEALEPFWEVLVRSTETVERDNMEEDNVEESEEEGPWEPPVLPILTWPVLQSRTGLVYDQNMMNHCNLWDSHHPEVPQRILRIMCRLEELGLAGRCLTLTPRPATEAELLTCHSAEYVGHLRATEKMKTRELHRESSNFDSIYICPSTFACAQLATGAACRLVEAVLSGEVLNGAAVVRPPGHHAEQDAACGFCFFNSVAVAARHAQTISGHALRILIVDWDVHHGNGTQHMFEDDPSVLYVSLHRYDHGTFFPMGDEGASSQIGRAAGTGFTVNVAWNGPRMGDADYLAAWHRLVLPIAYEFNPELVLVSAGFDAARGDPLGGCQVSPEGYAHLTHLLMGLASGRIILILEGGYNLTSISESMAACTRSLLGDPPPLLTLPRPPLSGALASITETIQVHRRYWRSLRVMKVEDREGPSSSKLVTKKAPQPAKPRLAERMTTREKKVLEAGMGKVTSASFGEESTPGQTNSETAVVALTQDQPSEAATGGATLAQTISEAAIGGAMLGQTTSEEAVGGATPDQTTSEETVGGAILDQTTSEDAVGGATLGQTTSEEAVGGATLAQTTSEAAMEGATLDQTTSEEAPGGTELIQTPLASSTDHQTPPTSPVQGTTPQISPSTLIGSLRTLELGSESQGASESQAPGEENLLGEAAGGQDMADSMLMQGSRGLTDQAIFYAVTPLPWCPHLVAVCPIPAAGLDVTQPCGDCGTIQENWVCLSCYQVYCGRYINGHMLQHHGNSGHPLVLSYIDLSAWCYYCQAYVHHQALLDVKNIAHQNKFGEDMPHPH
# Assay: HDAC6 enzyme inhibitory activity (HDAC-Glo I/II Assay kit)
# Type: biochemical
# Conditions: 10 μM; wells without enzyme = 100% inhibition
# Description: HDAC6 enzyme prepared by transducing full length HDAC6 gene into Sf-9 insect cells and purifying by GST affinity column were purchased from SignalChem. Using this enzyme, HDAC6 enzyme inhibitory activities of the compound of the present invention were evaluated. Enzymes were used after preserved at −70° C. HDAC6 enzyme inhibitory activity of the compound of the present invention was measured using HDAC-Glo™ I/II Assay kit (Promega) according to the following experimental method. The test compound diluted with assay buffer (24 mM Tris-HCl (pH 7.5), 1 mM MgCl2, 0.35 mM KCl, 135 mM NaCl, 0.6 mM Glutathione, 0.01% Tween-20) was added to a 384-well plate by each 2 μL. Then, HDAC6 enzyme solution diluted with assay buffer was added thereto by each 4 μL, and the plate was incubated at room temperature for 60 min. After incubated, HDAC substrate-Developer solution prepared according to Promega protocol attached to the assay kit was added to the 384-well plate by each 2 μL, and the enzyme reaction was started. After reacting at room temperature for 20 min, luminescence level was measured using plate reader Envision (PerkinElmer). The inhibitory activity of each compound of Example was calculated as a relative activity value when luminescence level in wells without enzyme is considered as 100% inhibition.
row,Structure (SMILES),HDAC6 inhibitory rate (%) (10 μM)
1,"O=C1c2cc(-c3nnc(C(F)F)o3)ccc2CN1[C@@H]1CCCC[C@H]1n1cccn1 (relative stereo) [Example 529, 6-(5-(difluoromethyl)-1,3,4-oxadiazol-2-yl)-2-((1R*,2R*)-2-(1H-pyrazol-1-yl)cyclohexyl)isoindolin-1-one (optical isomer)]",100%
2,"O=C1c2cc(-c3nnc(C(F)F)o3)ccc2CN1[C@H]1CCCC[C@H]1n1cccn1 (relative stereo) [Example 543, 6-(5-(difluoromethyl)-1,3,4-oxadiazol-2-yl)-2-((1S*,2R*)-2-(1H-pyrazol-1-yl)cyclohexyl)isoindolin-1-one (optical isomer)]",100%
3,"COC(=O)N1CC[C@@H](c2ccc(F)cc2)[C@H](N2Cc3ccc(-c4nnc(C(F)F)o4)cc3C2=O)C1 (relative stereo) [Example 545, methyl (3S*,4S*)-3-(6-(5-(difluoromethyl)-1,3,4-oxadiazol-2-yl)-1-oxo-1,3-dihydro-2H-isoindol-2-yl)-4-(4-fluorophenyl)piperidine-1-carboxylate (optical isomer)]",100%
4,"O=C1c2cc(-c3nnc(C(F)F)o3)cnc2CN1[C@@H]1CCCC[C@H]1Oc1ccc(F)cc1 (relative stereo) [Example 552, 3-(5-(difluoromethyl)-1,3,4-oxadiazol-2-yl)-6-((1R*,2R*)-2-(4-fluorophenoxy)cyclohexyl)-6,7-dihydro-5H-pyrrolo[3,4-b]pyridin-5-one (optical isomer)]",100%
5,"O=C1c2cc(-c3nnc(C(F)F)o3)cnc2CN1[C@@H]1CCCC[C@H]1c1ccccn1 (relative stereo) [Example 588, 3-(5-(difluoromethyl)-1,3,4-oxadiazol-2-yl)-6-((1R*,2R*)-2-(pyridin-2-yl)cyclohexyl)-6,7-dihydro-5H-pyrrolo[3,4-b]pyridin-5-one (optical isomer)]",100%

# Same assay, conditions: 10 μM; wells without enzyme = 100% inhibition; read-out: HDAC6 inhibitory rate (%) (10 μM)
row,Structure (SMILES),inhibition at 10 µM
1,"O=C(C(F)F)N1CCC[C@H](N2Cc3ccc(-c4nnc(C(F)F)o4)cc3C2=O)[C@H]1c1ccc(F)cc1 (racemic) [Example 584, 2-((2RS,3SR)-1-(difluoroacetyl)-2-(4-fluorophenyl)piperidin-3-yl)-6-(5-(difluoromethyl)-1,3,4-oxadiazol-2-yl)isoindolin-1-one]",100%
2,"O=C1c2cc(-c3nnc(C(F)F)o3)cnc2CN1[C@@H]1CCCC[C@H]1Oc1cncc(F)c1 (racemic) [Example 585, 3-(5-(difluoromethyl)-1,3,4-oxadiazol-2-yl)-6-((1RS,2RS)-2-((5-fluoropyridin-3-yl)oxy)cyclohexyl)-6,7-dihydro-5H-pyrrolo[3,4-b]pyridin-5-one]",100%
3,"CC(C)(C)OC(=O)N1CCC[C@@H](N2Cc3ccc(-c4nnc(C(F)F)o4)cc3C2=O)[C@H]1c1ccc(F)cc1 (racemic) [Example 618, tert-butyl (2RS,3RS)-3-(6-(5-(difluoromethyl)-1,3,4-oxadiazol-2-yl)-1-oxo-1,3-dihydro-2H-isoindol-2-yl)-2-(4-fluorophenyl)piperidine-1-carboxylate]",99%
4,"O=C1c2cc(-c3nnc(C(F)F)o3)ccc2CN1[C@@H]1CCCN[C@@H]1c1ccc(F)cc1 (racemic) [Example 620, 6-(5-(difluoromethyl)-1,3,4-oxadiazol-2-yl)-2-((2RS, 3RS)-2-(4-fluorophenyl)piperidin-3-yl)isoindolin-1-one]",101%
5,"O=C1c2cc(-c3nnc(C(F)F)o3)ccc2CN1[C@@H]1CCCN(C(=O)C(F)F)[C@@H]1c1ccc(F)cc1 (racemic) [Example 624, 2-((2RS,3RS)-1-(difluoroacetyl)-2-(4-fluorophenyl)piperidin-3-yl)-6-(5-(difluoromethyl)-1,3,4-oxadiazol-2-yl)isoindolin-1-one]",100%
6,"O=C1c2cc(-c3nnc(C(F)F)o3)cnc2CN1[C@@H]1CCCC[C@H]1c1ccn[nH]1 (racemic) [Example 654, 3-[5-(difluoromethyl)-1,3,4-oxadiazol-2-yl]-6-[(1RS,2RS)-2-(1H-pyrazol-5-yl)cyclohexyl]-6,7-dihydro-5H-pyrrolo[3,4-b]pyridin-5-one]",100%
7,"O=C1c2cc(-c3nnc(C(F)F)o3)ccc2CN1[C@@H]1CCCC[C@H]1n1cccn1 (relative stereo) [Example 528, 6-(5-(difluoromethyl)-1,3,4-oxadiazol-2-yl)-2-((1R*,2R*)-2-(1H-pyrazol-1-yl)cyclohexyl)isoindolin-1-one (optical isomer)]",99%
8,"O=C1c2cc(-c3nnc(C(F)F)o3)cnc2CN1[C@@H]1CCCC[C@H]1n1cccn1 (relative stereo) [Example 539, 3-(5-(difluoromethyl)-1,3,4-oxadiazol-2-yl)-6-((1R*,2R*)-2-(1H-pyrazol-1-yl)cyclohexyl)-6,7-dihydro-5H-pyrrolo[3,4-b]pyridin-5-one (optical isomer)]",99%
9,"O=C1c2cc(-c3nnc(C(F)F)o3)ccc2CN1[C@H]1CCCC[C@H]1n1cccn1 (relative stereo) [Example 542, 6-(5-(difluoromethyl)-1,3,4-oxadiazol-2-yl)-2-((1S*,2R*)-2-(1H-pyrazol-1-yl)cyclohexyl)isoindolin-1-one (optical isomer)]",90%
10,"COC(=O)N1CC[C@@H](c2ccc(F)cc2)[C@H](N2Cc3ccc(-c4nnc(C(F)F)o4)cc3C2=O)C1 (relative stereo) [Example 544, methyl (3S*,4S*)-3-(6-(5-(difluoromethyl)-1,3,4-oxadiazol-2-yl)-1-oxo-1,3-dihydro-2H-isoindol-2-yl)-4-(4-fluorophenyl)piperidine-1-carboxylate (optical isomer)]",99%
11,"O=C1c2cc(-c3nnc(C(F)F)o3)cnc2CN1[C@@H]1CCCC[C@H]1Oc1ccc(F)cc1 (relative stereo) [Example 551, 3-(5-(difluoromethyl)-1,3,4-oxadiazol-2-yl)-6-((1R*,2R*)-2-(4-fluorophenoxy)cyclohexyl)-6,7-dihydro-5H-pyrrolo[3,4-b]pyridin-5-one (optical isomer)]",99%
12,"O=C1c2cc(-c3nnc(C(F)F)o3)ccc2CN1[C@@H]1CCC(F)(F)C[C@H]1c1ccccn1 (relative stereo) [Example 586, 6-(5-(difluoromethyl)-1,3,4-oxadiazol-2-yl)-2-((1R*,2R*)-4,4-difluoro-2-(pyridin-2-yl)cyclohexyl)isoindolin-1-one (Optical Isomer)]",100%
13,"O=C1c2cc(-c3nnc(C(F)F)o3)cnc2CN1[C@@H]1CCCC[C@H]1c1ccccn1 (relative stereo) [Example 587, 3-(5-(difluoromethyl)-1,3,4-oxadiazol-2-yl)-6-((1R*,2R*)-2-(pyridin-2-yl)cyclohexyl)-6,7-dihydro-5H-pyrrolo[3,4-b]pyridin-5-one (optical isomer)]",99%
14,"O=C1c2cc(-c3nnc(C(F)F)o3)ccc2CN1[C@@H]1CCC(F)(F)C[C@@H]1c1ccccn1 (relative stereo) [Example 590, 6-(5-(difluooromethyl)-1,3,4-oxadiazol-2-yl)-2-((1R*,2S*)-4,4-difluoro-2-(pyridin-2-yl)cyclohexyl)isoindolin-1-one (optical isomer)]",100%

# Source: US10435399B2, “HDAC6 inhibitory heterocyclic compound” (TAKEDA PHARMACEUTICAL COMPANY LIMITED, priority 2017, dated 2019)
